Test results from the NIST ThermoML archive (doi:10.1016/j.fluid.2010.02.012).
Numbers after ± are expanded uncertainties.

Assay: excess molar enthalpy (molar enthalpy of mixing); xn = mol fraction of the nth substance listed
Settings: 298.18 K, 101 kPa, Liquid, Calvet calorimetry

CCCCCCCCCC [decane] + CCO
Settings | excess molar enthalpy [kcal/mol]
x2 = 0.0881 | 0.12 ± 0.00263
x2 = 0.1338 | 0.142 ± 0.00311
x2 = 0.1766 | 0.159 ± 0.00335
x2 = 0.2665 | 0.174 ± 0.00382
x2 = 0.3141 | 0.176 ± 0.00382
x2 = 0.4314 | 0.176 ± 0.00382
x2 = 0.5931 | 0.161 ± 0.00359
x2 = 0.6501 | 0.153 ± 0.00335
x2 = 0.7248 | 0.141 ± 0.00311
x2 = 0.7837 | 0.128 ± 0.00287
x2 = 0.8079 | 0.123 ± 0.00263
x2 = 0.848 | 0.105 ± 0.00239
x2 = 0.8829 | 0.0894 ± 0.00191
x2 = 0.9377 | 0.0576 ± 0.0012
x2 = 0.962 | 0.038 ± 0.000956
